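Here, GI50 denotes the concentration required for 50% inhibition of growth. TGI: concentration producing complete growth inhibition.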
What was measured:
Assay in all cases: NCI-60 cell line screen, 384-well format
K-562 leukemia = tested on: K-562 leukemia
CCRF-CEM leukemia = tested on: CCRF-CEM leukemia
MDA-MB-231 breast = tested on: MDA-MB-231 breast
NCI-H23 lung = tested on: NCI-H23 lung
HCT-116 colon = tested on: HCT-116 colon
MOLT-4 leukemia = tested on: MOLT-4 leukemia
TK-10 renal = tested on: TK-10 renal
MDA-MB-468 breast = tested on: MDA-MB-468 breast
A498 renal = tested on: A498 renal
EKVX NSCLC = tested on: EKVX NSCLC
MDA-MB-435 melanoma = tested on: MDA-MB-435 melanoma
DU-145 prostate = tested on: DU-145 prostate
LOX IMVI melanoma = tested on: LOX IMVI melanoma
OVCAR-4 ovarian = tested on: OVCAR-4 ovarian
COLO 205 colon = tested on: COLO 205 colon
U251 glioblastoma = tested on: U251 glioblastoma
SW-620 colon = tested on: SW-620 colon
NCI-H322M lung = tested on: NCI-H322M lung
HL-60(TB) leukemia = tested on: HL-60(TB) leukemia
MCF7 breast = tested on: MCF7 breast
MALME-3M melanoma = tested on: MALME-3M melanoma
NCI/ADR-RES ovarian = tested on: NCI/ADR-RES ovarian
KM12 colon = tested on: KM12 colon
A549 NSCLC = tested on: A549 NSCLC
786-0 renal = tested on: 786-0 renal
RXF 393 renal = tested on: RXF 393 renal
HCC-2998 colon = tested on: HCC-2998 colon
NCI-H522 lung = tested on: NCI-H522 lung
SK-MEL-28 melanoma = tested on: SK-MEL-28 melanoma
OVCAR-3 ovarian = tested on: OVCAR-3 ovarian
ACHN renal = tested on: ACHN renal
NCI-H226 lung = tested on: NCI-H226 lung
HOP-62 NSCLC = tested on: HOP-62 NSCLC
PC-3 prostate = tested on: PC-3 prostate
HT29 colon = tested on: HT29 colon
M14 melanoma = tested on: M14 melanoma
BT-549 breast = tested on: BT-549 breast
SNB-19 CNS = tested on: SNB-19 CNS
HCT-15 colon = tested on: HCT-15 colon
RPMI-8226 leukemia = tested on: RPMI-8226 leukemia
SF-539 CNS = tested on: SF-539 CNS
SNB-75 CNS = tested on: SNB-75 CNS
UACC-62 melanoma = tested on: UACC-62 melanoma
SN12C renal = tested on: SN12C renal
OVCAR-5 ovarian = tested on: OVCAR-5 ovarian
SK-MEL-5 melanoma = tested on: SK-MEL-5 melanoma
T-47D breast = tested on: T-47D breast
SF-268 CNS = tested on: SF-268 CNS
UO-31 renal = tested on: UO-31 renal
SF-295 CNS = tested on: SF-295 CNS
OVCAR-8 ovarian = tested on: OVCAR-8 ovarian
SK-OV-3 ovarian = tested on: SK-OV-3 ovarian
UACC-257 melanoma = tested on: UACC-257 melanoma
NCI-H460 NSCLC = tested on: NCI-H460 NSCLC
HOP-92 NSCLC = tested on: HOP-92 NSCLC
CAKI-1 renal = tested on: CAKI-1 renal
HS 578T breast = tested on: HS 578T breast
IGROV1 ovarian = tested on: IGROV1 ovarian

`COc1ccc(Oc2cc(NCCC(F)(F)F)c3ncc(-c4ccc(C(=O)NC5CC5)c(C)c4)n3n2)c(F)c1F` was tested, and the GI50 (K-562 leukemia) was 0.264 µM, the TGI (K-562 leukemia) was greater than 100 µM and the GI50 (CCRF-CEM leukemia) was less than 0.01 µM. The TGI (CCRF-CEM leukemia) was less than 0.01 µM, the GI50 (MDA-MB-231 breast) was 0.365 µM and the TGI (MDA-MB-231 breast) was 30.1 µM. For the same molecule, the GI50 (NCI-H23 lung) was less than 0.01 µM, the TGI (NCI-H23 lung) was 29.6 µM and the GI50 (HCT-116 colon) was less than 0.01 µM. The TGI (HCT-116 colon) was greater than 100 µM, the GI50 (MOLT-4 leukemia) was less than 0.01 µM and the TGI (MOLT-4 leukemia) was less than 0.01 µM. For the same molecule, the GI50 (TK-10 renal) was 5.83 µM, the TGI (TK-10 renal) was 62.2 µM and the GI50 (MDA-MB-468 breast) was less than 0.01 µM. It also gave a TGI (MDA-MB-468 breast) of 3.47 µM, a GI50 (A498 renal) of 0.189 µM and a TGI (A498 renal) of 7.86 µM. The GI50 (EKVX NSCLC) was 5.88 µM, the TGI (EKVX NSCLC) was 84.2 µM and the GI50 (MDA-MB-435 melanoma) was 0.286 µM. For the same molecule, the TGI (MDA-MB-435 melanoma) was 70 µM, the GI50 (DU-145 prostate) was less than 0.01 µM and the TGI (DU-145 prostate) was greater than 100 µM. For the same molecule, the GI50 (LOX IMVI melanoma) was less than 0.01 µM, the TGI (LOX IMVI melanoma) was 11.5 µM and the GI50 (OVCAR-4 ovarian) was 13.9 µM. The TGI (OVCAR-4 ovarian) was 67 µM, the GI50 (COLO 205 colon) was less than 0.01 µM and the TGI (COLO 205 colon) was greater than 100 µM. The GI50 (U251 glioblastoma) was less than 0.01 µM, the TGI (U251 glioblastoma) was 17.4 µM and the GI50 (SW-620 colon) was less than 0.01 µM. For the same molecule, the TGI (SW-620 colon) was 18.5 µM, the GI50 (NCI-H322M lung) was 2.14 µM and the TGI (NCI-H322M lung) was greater than 100 µM. It also gave a GI50 (HL-60(TB) leukemia) of less than 0.01 µM, a TGI (HL-60(TB) leukemia) of less than 0.01 µM and a GI50 (MCF7 breast) of 1.75 µM. For the same molecule, the TGI (MCF7 breast) was 85 µM, the GI50 (MALME-3M melanoma) was 0.182 µM and the TGI (MALME-3M melanoma) was 26.7 µM. The GI50 (NCI/ADR-RES ovarian) was less than 0.01 µM, the TGI (NCI/ADR-RES ovarian) was 0.568 µM and the GI50 (KM12 colon) was 0.271 µM. It also gave a TGI (KM12 colon) greater than 100 µM, a GI50 (A549 NSCLC) of less than 0.01 µM and a TGI (A549 NSCLC) of 18.4 µM. For the same molecule, the GI50 ([…]-0 renal) was less than 0.01 µM, the TGI (786-0 renal) was 14.3 µM and the GI50 (RXF 393 renal) was less than 0.01 µM. It also gave a TGI (RXF 393 renal) of 0.932 µM, a GI50 (HCC-2998 colon) of 13.1 µM and a TGI (HCC-2998 colon) greater than 100 µM. For the same molecule, the GI50 (NCI-H522 lung) was 0.682 µM, the TGI (NCI-H522 lung) was 14.3 µM and the GI50 (SK-MEL-28 melanoma) was 9.92 µM. The TGI (SK-MEL-28 melanoma) was 40.7 µM, the GI50 (OVCAR-3 ovarian) was 0.365 µM and the TGI (OVCAR-3 ovarian) was 17.5 µM. For the same molecule, the GI50 (ACHN renal) was 0.169 µM, the TGI (ACHN renal) was 26.9 µM and the GI50 (NCI-H226 lung) was 4.83 µM. It also gave a TGI (NCI-H226 lung) of 54.4 µM, a GI50 (HOP-62 NSCLC) of less than 0.01 µM and a TGI (HOP-62 NSCLC) of 4.93 µM. The GI50 (PC-3 prostate) was 1.43 µM, the TGI (PC-3 prostate) was 28.8 µM and the GI50 (HT29 colon) was less than 0.01 µM. For the same molecule, the TGI (HT29 colon) was greater than 100 µM, the GI50 (M14 melanoma) was 0.0101 µM and the TGI (M14 melanoma) was 15.2 µM. It also gave a GI50 (BT-549 breast) of 0.256 µM, a TGI (BT-549 breast) of 17 µM and a GI50 (SNB-19 CNS) of 2.8 µM. The TGI (SNB-19 CNS) was 39.8 µM, the GI50 (HCT-15 colon) was less than 0.01 µM and the TGI (HCT-15 colon) was 12.2 µM. The GI50 (RPMI-8226 leukemia) was less than 0.01 µM, the TGI (RPMI-8226 leukemia) was 24.5 µM and the GI50 (SF-539 CNS) was less than 0.01 µM. It also gave a TGI (SF-539 CNS) of 2.11 µM, a GI50 (SNB-75 CNS) of 0.0544 µM and a TGI (SNB-75 CNS) of 13.3 µM. For the same molecule, the GI50 (UACC-62 melanoma) was 0.0441 µM, the TGI (UACC-62 melanoma) was 8.83 µM and the GI50 (SN12C renal) was 18.5 µM. It also gave a TGI (SN12C renal) greater than 100 µM, a GI50 (OVCAR-5 ovarian) of 0.977 µM and a TGI (OVCAR-5 ovarian) greater than 100 µM. The GI50 (SK-MEL-5 melanoma) was less than 0.01 µM, the TGI (SK-MEL-5 melanoma) was 18.5 µM and the GI50 (T-47D breast) was 2.11 µM. It also gave a TGI (T-47D breast) of 34.8 µM, a GI50 (SF-268 CNS) of less than 0.01 µM and a TGI (SF-268 CNS) of less than 0.01 µM. The GI50 (UO-31 renal) was less than 0.01 µM, the TGI (UO-31 renal) was 20 µM and the GI50 (SF-295 CNS) was 1.41 µM. It also gave a TGI (SF-295 CNS) of 31.2 µM, a GI50 (OVCAR-8 ovarian) of less than 0.01 µM and a TGI (OVCAR-8 ovarian) of 3.68 µM. For the same molecule, the GI50 (SK-OV-3 ovarian) was 0.459 µM, the TGI (SK-OV-3 ovarian) was 27 µM and the GI50 (UACC-257 melanoma) was 3.09 µM. It also gave a TGI (UACC-257 melanoma) of 25.4 µM, a GI50 (NCI-H460 NSCLC) of less than 0.01 µM and a TGI (NCI-H460 NSCLC) of 1.17 µM. It also gave a GI50 (HOP-92 NSCLC) of 1.16 µM, a TGI (HOP-92 NSCLC) of 14.5 µM and a GI50 (CAKI-1 renal) of 0.208 µM. It also gave a TGI (CAKI-1 renal) of 2.48 µM, a GI50 (HS 578T breast) of 0.0204 µM and a TGI (HS 578T breast) of 2.32 µM. The GI50 (IGROV1 ovarian) was 0.337 µM and the TGI (IGROV1 ovarian) was 46.4 µM.

— PubChem BioAssay (NCI)
